Experimental data taken from ChEMBL document CHEMBL2073802, “Increase in doxorubicin cytotoxicity by inhibition of P-glycoprotein activity with lomerizine” (Biol Pharm Bull, 2001).

Target: ATP-dependent translocase ABCB1 (Homo sapiens, UniProt P08183)
Assay: TP_TRANSPORTER: increase in Calcein intracellular accumulation (Calcein: 1 uM, Lomerizine: 10 uM) in K562/DOX cells
Format: functional, cell-based
Conditions: k562/adr

Sequence of ATP-dependent translocase ABCB1 (P08183 whole entry): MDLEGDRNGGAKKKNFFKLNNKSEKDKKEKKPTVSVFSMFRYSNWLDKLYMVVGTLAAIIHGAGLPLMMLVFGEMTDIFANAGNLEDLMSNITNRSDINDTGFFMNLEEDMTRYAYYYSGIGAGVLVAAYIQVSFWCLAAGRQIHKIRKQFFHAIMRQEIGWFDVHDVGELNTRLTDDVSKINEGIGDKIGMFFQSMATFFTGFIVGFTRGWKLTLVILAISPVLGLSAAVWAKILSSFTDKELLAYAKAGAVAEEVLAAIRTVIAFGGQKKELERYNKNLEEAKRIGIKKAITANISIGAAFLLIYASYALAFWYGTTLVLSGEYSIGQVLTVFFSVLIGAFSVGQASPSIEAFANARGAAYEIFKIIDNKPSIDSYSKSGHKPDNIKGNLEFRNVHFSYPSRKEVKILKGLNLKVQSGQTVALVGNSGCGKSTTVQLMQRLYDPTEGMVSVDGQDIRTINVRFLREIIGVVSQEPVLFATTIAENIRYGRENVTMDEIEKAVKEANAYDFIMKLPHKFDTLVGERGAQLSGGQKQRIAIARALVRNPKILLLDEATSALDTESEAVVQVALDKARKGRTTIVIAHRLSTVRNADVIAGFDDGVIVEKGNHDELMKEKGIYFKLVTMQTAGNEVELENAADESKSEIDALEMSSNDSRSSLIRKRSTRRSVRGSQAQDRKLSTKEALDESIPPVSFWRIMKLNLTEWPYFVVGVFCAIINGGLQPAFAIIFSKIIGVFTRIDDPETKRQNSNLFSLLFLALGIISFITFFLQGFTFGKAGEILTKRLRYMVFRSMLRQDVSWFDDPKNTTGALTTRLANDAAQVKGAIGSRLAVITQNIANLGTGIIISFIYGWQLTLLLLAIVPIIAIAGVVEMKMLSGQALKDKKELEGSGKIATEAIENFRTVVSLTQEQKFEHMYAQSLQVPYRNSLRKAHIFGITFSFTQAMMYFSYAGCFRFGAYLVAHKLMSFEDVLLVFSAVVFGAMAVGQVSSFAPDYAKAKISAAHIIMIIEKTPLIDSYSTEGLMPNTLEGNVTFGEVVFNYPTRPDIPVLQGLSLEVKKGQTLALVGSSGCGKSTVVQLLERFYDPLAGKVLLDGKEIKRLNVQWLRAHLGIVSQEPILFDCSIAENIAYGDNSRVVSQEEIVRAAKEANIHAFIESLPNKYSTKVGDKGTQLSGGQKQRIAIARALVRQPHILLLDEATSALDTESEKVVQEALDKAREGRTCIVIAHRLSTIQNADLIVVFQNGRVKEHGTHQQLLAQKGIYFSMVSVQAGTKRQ

Activity: inhibitor [+]
Structure (SMILES): COc1ccc(CN2CCN(C(c3ccc(F)cc3)c3ccc(F)cc3)CC2)c(OC)c1OC [LOMERIZINE]
